Test results taken from patent US20260070945A1, “MACROCYCLIC IMMUNOMODULATORS” (Bristol-Myers Squibb Company, priority 2022, published 2026).
Where a SMILES comes first, the peptide text is derived from it. Bridges are numbered along the chain shown (N, C = ends). [ ]: non-standard residue; d: D form. The star is where a group is joined. ξ: configuration not given here. Phe(4-(4-F-Ph)) = N[C@@H](Cc1ccc(-c2ccc(F)cc2)cc1)C(=O)O; Phe(4-CH2CH2COOH) = N[C@@H](Cc1ccc(CCC(=O)O)cc1)C(=O)O; Phe(3-CF3) = N[C@@H](Cc1cccc(C(F)(F)F)c1)C(=O)O; Phe(4-COOH) = N[C@@H](Cc1ccc(C(=O)O)cc1)C(=O)O; Bip = N[C@@H](Cc1ccc(-c2ccccc2)cc1)C(=O)O; NH(CH2)14COOH = O=C(O)CCCCCCCCCCCCCCN*; Phe(3-Me) = Cc1cccc(C[C@H](N)C(=O)O)c1; NH(CH2)12COOH = O=C(O)CCCCCCCCCCCCN*; Val(3-OH) = CC(C)(O)[C@H](N)C(=O)O; 4Pal = N[C@@H](Cc1ccncc1)C(=O)O; Cha = N[C@@H](CC1CCCCC1)C(=O)O; Ile(3ξ) = CCC(C)[C@H](N)C(=O)O; Thr(3ξ) = CC(O)[C@H](N)C(=O)O; β3hS = N[C@@H](CO)CC(=O)O; Carboxymethyl = O=C(O)C*; NMeA = CN[C@@H](C)C(=O)O; Orn = NCCC[C@H](N)C(=O)O; Aun = NCCCCCCCCCCC(=O)O; Dab = NCC[C@H](N)C(=O)O; Dap = NC[C@H](N)C(=O)O; AEEA = NCCOCCOCC(=O)O

target: T1, PD-1/PD-L1 interaction (PE-labeled human PD-L1-Ig binding to Jurkat cell line over-expressing human PD-1) (Homo sapiens, UniProt Q15116); test: Jurkat-PD-1 Cell Binding High-Content Screening Assay (CBA); conditions: Jurkat-hPD-1 cells, PE-labeled PD-L1-Ig 20 nM final; read-out: Jurkat HPD1 PDL1 IC50
T1 construct: expressed in transfected cells; host or cells: Jurkat
T1 sequence (Q15116 25-288): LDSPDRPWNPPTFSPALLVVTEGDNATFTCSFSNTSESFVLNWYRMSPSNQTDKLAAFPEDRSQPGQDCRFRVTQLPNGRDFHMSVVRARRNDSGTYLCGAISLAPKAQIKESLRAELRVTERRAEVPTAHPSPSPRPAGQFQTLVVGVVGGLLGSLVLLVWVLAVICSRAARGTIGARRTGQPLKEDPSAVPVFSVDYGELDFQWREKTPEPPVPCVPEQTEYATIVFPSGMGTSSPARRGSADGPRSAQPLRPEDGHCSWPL
Outline: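 Read-out: high-content imaging of cell-bound PE fluorescence, with Hoechst 33342 nuclear counterstain after paraformaldehyde fixation. Before labeled ligand (20 nM final, 1 h) was added, compound sat on the cells for 2 h at 37 °C in DMEM/10% FCS.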

IC50	Compound
0.0095 µM	Cc1cccc(C[C@@H]2NC(=O)[C@H](CC(=O)O)NC(=O)[C@H](Cc3ccc(OCC(=O)O)cc3)NC(=O)[C@H]([C@@H](C)O)NC(=O)CSC[C@@H](C(=O)N[C@@H](CCN)C(=O)NCCCCCCCCCCC(=O)O)NC(=O)[C@H]([C@@H](C)O)NC(=O)[C@H](C(C)C)NC(=O)[C@H](CC3CCCCC3)NC(=O)[C@H](CCN)NC(=O)[C@@H](CC(C)C)NC(=O)[C@H](C)N(C)C(=O)[C@H](Cc3ccc(OCC(=O)O)cc3)NC(=O)[C@H](Cc3ccc(-c4ccc(F)cc4)cc3)NC(=O)[C@H](Cc3ccc(C(=O)O)cc3)NC2=O)c1 [Example 1235] ({CH2CO}-TY(Carboxymethyl)D[Phe(3-Me)][Phe(4-COOH)][Phe(4-(4-F-Ph))]Y(Carboxymethyl)[NMeA][dL][Dab][Cha]VTC[Dab][Aun]-OH; thioether N-14)
0.0389 µM	CC(=O)NCCCC[C@@H]1NC(=O)[C@H](Cc2ccc(-c3ccccc3)cc2)NC(=O)[C@H](Cc2ccc(O)cc2)NC(=O)[C@H](Cc2cccc(C)c2)NC(=O)[C@H](CC(=O)O)NC(=O)[C@H](Cc2ccc(OCC(=O)O)cc2)NC(=O)[C@H](Cc2ccc(OCC(=O)O)cc2)NC(=O)CSC[C@@H](C(=O)NCCCCCCCCCCC(=O)O)NC(=O)[C@H](C(C)O)NC(=O)[C@H](C(C)C)NC(=O)[C@H](CC2CCCCC2)NC(=O)[C@H](CCN)NC(=O)[C@@H](CC(C)C)NC(=O)[C@H](C)N(C)C1=O (stereo partly drawn) [Example 2379] ({CH2CO}-Y(Carboxymethyl)Y(Carboxymethyl)D[Phe(3-Me)]Y[Bip]K(Ac)[NMeA][dL][Dab][Cha]V[Thr(3ξ)]C[Aun]-OH; thioether N-14)
0.0394 µM	CC(C)C[C@@H]1NC(=O)[C@H](Cc2c[nH]c3ccccc23)NC(=O)[C@H](CC(=O)O)NC(=O)[C@H](Cc2ccc(C(=O)O)cc2)NC(=O)[C@H](Cc2ccc(OCC(=O)O)cc2)NC(=O)CSC[C@@H](C(=O)N[C@@H](CCCCN)C(=O)NCCCCCCCCCCC(=O)O)NC(=O)[C@H](CN)NC(=O)[C@H](C(C)C)NC(=O)[C@H](CC2CCCCC2)NC(=O)[C@H](CCN)NC(=O)[C@@H](CC(C)C)NC(=O)[C@H](C)N(C)C(=O)[C@H](C(C)C)NC(=O)[C@H](Cc2ccc(-c3ccccc3)cc2)NC1=O [Example 1348] ({CH2CO}-Y(Carboxymethyl)[Phe(4-COOH)]DWL[Bip]V[NMeA][dL][Dab][Cha]V[Dap]CK[Aun]-OH; thioether N-14)
0.017 µM	CC(C)C[C@H]1NC(=O)[C@H](C)N(C)C(=O)[C@H](C(C)C)NC(=O)[C@H](Cc2ccc(-c3ccccc3)cc2)NC(=O)[C@H](C(C)C)NC(=O)[C@H](Cc2c[nH]c3ccccc23)NC(=O)[C@H](CC(=O)O)NC(=O)[C@H](Cc2ccc(C(=O)O)cc2)NC(=O)[C@H](Cc2ccc(OCC(=O)O)cc2)NC(=O)CSC[C@@H](C(=O)N[C@@H](CCCN)C(=O)NCCOCCOCC(=O)NCCCCCCCCCCC(=O)O)NC(=O)[C@H](CO)NC(=O)[C@H](C(C)C)NC(=O)[C@H](CC2CCCCC2)NC(=O)[C@H](CCN)NC1=O [Example 2110] ({CH2CO}-Y(Carboxymethyl)[Phe(4-COOH)]DWV[Bip]V[NMeA][dL][Dab][Cha]VSC[Orn][AEEA][Aun]-OH; thioether N-14)
0.123 µM	CC(C)C[C@H]1NC(=O)[C@H](C)N(C)C(=O)[C@H](Cc2ccc(OCC(=O)O)cc2)NC(=O)[C@H](Cc2ccc(-c3ccccc3)cc2)NC(=O)[C@H](Cc2ccc(OCC(=O)O)cc2)NC(=O)[C@H](Cc2c[nH]c3ccccc23)NC(=O)[C@H](CC(=O)O)NC(=O)[C@H](Cc2ccc(OCC(=O)O)cc2)NC(=O)[C@H]([C@@H](C)O)NC(=O)CSC[C@@H](C(=O)N[C@@H](CCCN)C(=O)NCCOCCOCC(=O)NCCCCCCCCCCC(=O)O)NC(=O)[C@H](CC(N)=O)NC(=O)[C@H](C(C)C)NC(=O)[C@H](CC2CCCCC2)NC(=O)[C@H](CCN)NC1=O [Example 1397] ({CH2CO}-TY(Carboxymethyl)DWY(Carboxymethyl)[Bip]Y(Carboxymethyl)[NMeA][dL][Dab][Cha]VNC[Orn][AEEA][Aun]-OH; thioether N-14)
0.0637 µM	CC(C)C[C@H]1NC(=O)[C@H](C)N(C)C(=O)[C@H](C(C)C)NC(=O)[C@H](Cc2ccc(-c3ccccc3)cc2)NC(=O)[C@H](C(C)C)NC(=O)[C@H](Cc2c[nH]c3ccccc23)NC(=O)[C@H](CC(=O)O)NC(=O)[C@H](Cc2ccncc2)NC(=O)[C@H](Cc2ccc(OCC(=O)O)cc2)NC(=O)CSC[C@@H](C(=O)N[C@@H](CCCCN)C(=O)NCCCCCCCCCCC(=O)O)NC(=O)C[C@H](CO)NC(=O)[C@H](C(C)C)NC(=O)[C@H](CC2CCCCC2)NC(=O)[C@H](CCN)NC1=O [Example 2116] ({CH2CO}-Y(Carboxymethyl)[4Pal]DWV[Bip]V[NMeA][dL][Dab][Cha]V[β3hS]CK[Aun]-OH; thioether N-14)

same assay, conditions: PE-labeled PD-L1-Ig 20 nM final, Jurkat-hPD-1 cells; read-out: Jurkat HPD1 PDL1 IC50

IC50	Compound
0.0048 µM	CC(=O)NCCCC[C@@H]1NC(=O)[C@H](C(C)C)NC(=O)[C@H](CC2CCCCC2)NC(=O)[C@H](CCN)NC(=O)[C@@H](CC(C)C)NC(=O)[C@H](C)N(C)C(=O)[C@H](CCC(N)=O)NC(=O)[C@H](Cc2ccc(-c3ccccc3)cc2)NC(=O)[C@H](Cc2ccc(OCC(=O)O)cc2)NC(=O)[C@H](Cc2cccc(C)c2)NC(=O)[C@H](CC(=O)O)NC(=O)[C@H](Cc2ccc(OCC(=O)O)cc2)NC(=O)[C@H](Cc2ccncc2)NC(=O)CSC[C@@H](C(=O)N[C@@H](CCN)C(=O)NCCOCCOCC(=O)NCCCCCCCCCCC(=O)O)NC1=O [Example 2493] ({CH2CO}-[4Pal]Y(Carboxymethyl)D[Phe(3-Me)]Y(Carboxymethyl)[Bip]Q[NMeA][dL][Dab][Cha]VK(Ac)C[Dab][AEEA][Aun]-OH; thioether N-14)
0.0236 µM	CC(C)C[C@@H]1NC(=O)[C@H](Cc2c[nH]c3ccccc23)NC(=O)[C@H](CC(=O)O)NC(=O)[C@H](Cc2ccc(C(=O)O)cc2)NC(=O)[C@H](Cc2ccc(OCC(=O)O)cc2)NC(=O)CSC[C@@H](C(=O)NCCOCCOCC(=O)NCCCCCCCCCCC(=O)O)NC(=O)[C@H](CO)NC(=O)[C@H](C(C)(C)O)NC(=O)[C@H](CC2CCCCC2)NC(=O)[C@H](CCN)NC(=O)[C@@H](CC(C)C)NC(=O)[C@H](C)N(C)C(=O)[C@H](C(C)C)NC(=O)[C@H](Cc2ccc(-c3ccccc3)cc2)NC1=O [Example 2443] ({CH2CO}-Y(Carboxymethyl)[Phe(4-COOH)]DWL[Bip]V[NMeA][dL][Dab][Cha][Val(3-OH)]SC[AEEA][Aun]-OH; thioether N-14)
0.001 µM	CCC(C)[C@@H]1NC(=O)[C@H](Cc2ccc(-c3ccccc3)cc2)NC(=O)[C@H](C(C)C)NC(=O)[C@H](Cc2c[nH]c3ccccc23)NC(=O)[C@H](CC(=O)O)NC(=O)[C@H](Cc2ccc(C(=O)O)cc2)NC(=O)[C@H](Cc2cnc[nH]2)NC(=O)CSC[C@@H](C(=O)N[C@@H](CCN)C(=O)NCCOCCOCC(=O)NCCCCCCCCCCC(=O)O)NC(=O)[C@H](CCC(=O)O)NC(=O)[C@H](C(C)(C)O)NC(=O)[C@H](CC2CCCCC2)NC(=O)[C@H](CCN)NC(=O)[C@@H](CC(C)C)NC(=O)[C@H](C)N(C)C1=O (stereo partly drawn) [Example 2531] ({CH2CO}-H[Phe(4-COOH)]DWV[Bip][Ile(3ξ)][NMeA][dL][Dab][Cha][Val(3-OH)]EC[Dab][AEEA][Aun]-OH; thioether N-14)
0.0351 µM	CC(=O)NCCCC[C@@H]1NC(=O)[C@H](C(C)(C)O)NC(=O)[C@H](CC2CCCCC2)NC(=O)[C@H](CCN)NC(=O)[C@@H](CC(C)C)NC(=O)[C@H](C)N(C)C(=O)[C@H](CCC(N)=O)NC(=O)[C@H](Cc2ccc(-c3ccccc3)cc2)NC(=O)[C@H](Cc2ccc(CCC(=O)O)cc2)NC(=O)[C@H](Cc2cccc(C(F)(F)F)c2)NC(=O)[C@H](CC(=O)O)NC(=O)[C@H](Cc2ccc(OCC(=O)O)cc2)NC(=O)[C@H](Cc2ccc(OCC(=O)O)cc2)NC(=O)CSC[C@@H](C(=O)N[C@@H](CCN)C(=O)NCCCCCCCCCCCCCCC(=O)O)NC1=O [Example 2607] ({CH2CO}-Y(Carboxymethyl)Y(Carboxymethyl)D[Phe(3-CF3)][Phe(4-CH2CH2COOH)][Bip]Q[NMeA][dL][Dab][Cha][Val(3-OH)]K(Ac)C[Dab]-{NH(CH2)14COOH}; thioether N-14)
0.0084 µM	CC(C)C[C@H]1NC(=O)[C@H](C)N(C)C(=O)[C@H](C(C)C)NC(=O)[C@H](Cc2ccc(-c3ccccc3)cc2)NC(=O)[C@H](C(C)C)NC(=O)[C@H](Cc2c[nH]c3ccccc23)NC(=O)[C@H](CC(=O)O)NC(=O)[C@H](Cc2ccc(OCC(=O)O)cc2)NC(=O)[C@H](Cc2ccc(OCC(=O)O)cc2)NC(=O)CSC[C@@H](C(=O)NCCOCCOCC(=O)NCCCCCCCCCCC(=O)O)NC(=O)[C@H](CO)NC(=O)[C@H](C(C)(C)O)NC(=O)[C@H](CC2CCCCC2)NC(=O)[C@H](CCN)NC1=O [Example 2455] ({CH2CO}-Y(Carboxymethyl)Y(Carboxymethyl)DWV[Bip]V[NMeA][dL][Dab][Cha][Val(3-OH)]SC[AEEA][Aun]-OH; thioether N-14)
0.0095 µM	CC(C)C[C@H]1NC(=O)[C@H](C)N(C)C(=O)[C@H](CCC(N)=O)NC(=O)[C@H](Cc2ccc(-c3ccccc3)cc2)NC(=O)[C@H](Cc2ccc(OCC(=O)O)cc2)NC(=O)[C@H](Cc2cccc(C(F)(F)F)c2)NC(=O)[C@H](CC(=O)O)NC(=O)[C@H](Cc2ccc(OCC(=O)O)cc2)NC(=O)[C@H](Cc2cnc[nH]2)NC(=O)CSC[C@@H](C(=O)N[C@@H](CCN)C(=O)NCCCCCCCCCCCCC(=O)O)NC(=O)[C@H](CCC(=O)O)NC(=O)[C@H](C(C)(C)O)NC(=O)[C@H](CC2CCCCC2)NC(=O)[C@H](CCN)NC1=O [Example 2630] ({CH2CO}-HY(Carboxymethyl)D[Phe(3-CF3)]Y(Carboxymethyl)[Bip]Q[NMeA][dL][Dab][Cha][Val(3-OH)]EC[Dab]-{NH(CH2)12COOH}; thioether N-14)
